Measurements published in ChEMBL document CHEMBL2062367, “Stigonemapeptin, an Ahp-containing depsipeptide with elastase inhibitory activity from the bloom-forming freshwater cyanobacterium Stigonema sp” (J Nat Prod, 2012).
The source made the active and inactive calls.

What was measured:
[1] = species on record: Sus scrofa; assay: Inhibition of pig pancreatic trypsin using Nalpha-benzoyl-DL-arginine-4-nitroanilide as substrate at 10 uM incubated for 15 mins prior to substrate addition measured ever 30 secs for 30 mins by spectroscopy
[2] = tested on: HT-29; assay: Cytotoxicity against human HT-29 cells at 25 uM; type: functional, cell-based
[3] = species on record: Homo sapiens; assay: Inhibition of 20S proteasome at 25 uM

C/C=C1/NC(=O)[C@@H](NC(=O)[C@H](CCC(N)=O)NC(=O)[C@@H]2CCCN2C=O)[C@@H](C)OC(=O)[C@H](C(C)C)NC(=O)[C@H](Cc2ccc(O)cc2)N(C)C(=O)[C@H](Cc2ccccc2)N2C(=O)[C@H](CC[C@H]2O)NC1=O
inactive: inhibition [1] | Activity [2] | inhibition [3]
